Measurements from patent publication US20250205203A1, “SUBSTITUTED PYRAZOLYL COMPOUNDS AND METHODS OF USE THEREOF” (Chinook Therapeutics Canada, Inc., priority 2020, published 2025).

Columns and labels:
[1] = target: T1, human recombinant C-terminal His-tagged LDHA (Homo sapiens (Human), UniProt P00338); experiment: Human LDHA enzyme assay; format: biochemical; conditions: 50 μM pyruvate, 50 μM NADH, 1% DMSO
Protocol: Biochemical assays include recombinant human LDH enzymatic assays in which purified recombinant human lactate dehydrogenase A (LDHA) is incubated with test compound, substrate pyruvate and coenzyme […], and its enzymatic activity measured by the formation of NAD upon conversion of pyruvate to lactate.
(§1) Compounds were dissolved in DMSO and preincubated with human recombinant C-terminal His-tagged LDHA (0.070 μg/mL) for 10 min at room temperature in assay buffer consisting of 50 mM Tris (pH 7.5) and 100 mM NaCl in black walled, clear bottom, non-binding 96-well plates. Equal volumes of substrate solution containing 100 μM of pyruvate and 100 μM of NADH in assay buffer was added to each well (final concentration 0.035 μg/mL enzyme, 50 μM pyruvate, 50 μM NADH, and 1% DMSO). For human serum albumin (HSA) shift assay, the compounds were preincubated with the enzyme in assay buffer containing 20% HSA before substrate addition (final concentration 10% HSA). The reaction was monitored at 340 nm on a plate reader (Molecular Devices) in kinetic mode for 15 min. The rate of the reaction was determined by plotting absorbance vs time.

[2] = tested on: primary mouse hepatocytes; experiment: Primary mouse hepatocyte assay (lactate production); format: cell-based; conditions: wild type C57BL/6 hepatocytes, in presence of pyruvate
Protocol: LDH inhibitors can also be evaluated in an ex vivo assay consisting of primary mouse hepatocytes. Following isolation, viable wild-type murine hepatocytes are incubated with test compound in presence of pyruvate. Compound potency to modulate LDH enzymatic activity is then evaluated by measuring the conversion of pyruvate to lactate by the cells.
Compounds were evaluated in an ex vivo assay consisting of fresh primary mouse hepatocytes. Hepatocytes were isolated from wild type mice (C57BL/6NCrl from Charles River Labs) using a two-step collagenase perfusion technique which involves a sequential perfusion of anesthetized mice with Hanks' balanced salt solution and collagenase. Following isolation, viable wild type hepatocytes are incubated with test compound in presence of pyruvate and compound potency is evaluated by measuring the lactate produced by the cells using liquid chromatography coupled to mass spectrometry. Chromatographic separation was achieved on an XDB-C18 4.6×50 mm column (Agilent, Cat #927975-902) at a flow rate of 1 mL/min. Mobile phase A consisted of 0.1% formic acid in water and mobile phase B consisted of acetonitrile. A gradient program was initiated starting at 5% B which was held for 1 minutes, then ramped from 5% to 95% B over 1 minute. After holding at 95% B for 1 minute, the program changed back to 5% B. The column was equilibrated with 5% B for 1.5 minutes before the next injection. The mass spectrometer was operated in negative mode with electrospray ionization. The following transition along with their collision energy (CE) were used: 89→43 (CE: −16 V) for lactate and 92→45 (CE: −16 V) for ^13C3-Lactate (internal standard).

[3] = Liver-targeted tissue distribution profile study in rats; format: in vivo, rat; conditions: PO 10 mg/kg, SD rats
Protocol: Plasma and liver (target organ) concentrations of test compounds were determined in rats following a single per os (PO) administration of the test compounds. Male Sprague Dawley rats (6-8 weeks of age, Charles River Labs) were fasted overnight and a single dose of test compounds (10 mg/kg; as a suspension in 0.5% methyl cellulose) was administered by PO gavage. Rats were then sacrificed at 4 and 24 h after administration of the test compounds, and plasma and liver tissue samples were collected. Liver tissue samples were homogenized in 5 volumes of water:acetonitrile (50/50; v/v) mixture using a bead mill homogenizer. Plasma and liver homogenate samples were processed by protein precipitation using acetonitrile and the concentrations of the test compounds were determined by liquid chromatography-tandem mass spectrometry (SciEx triple quad 5500+ with Exion UPLC).

[4] = target: T1, human recombinant C-terminal His-tagged LDHA; experiment: Human LDHA enzyme assay, human serum albumin (HSA) shift assay; format: biochemical; conditions: final concentration 10% HSA
Protocol: as §1

[5] = PH1 patients; cited from earlier work

Compound | IC50 [1] | Measured Compound Concentration Liver-4 h [3] | Measured Compound Concentration Liver-24 h [3] | Measured Compound Concentration Plasma-4 h [3] | Measured Compound Concentration Plasma-24 h [3] | IC50 [4] | IC50 [2] | lowering urinary oxalate [5]
NS(=O)(=O)c1ccc(Cc2c(-c3ccc(F)c(C#CC4(O)COC4)c3)nn(-c3nc(C(=O)O)cs3)c2CC2CC2)cc1F [Example 1, 2-(5-(Cyclopropylmethyl)-3-(4-fluoro-3-((3-hydroxyoxetan-3-yl)ethynyl)phenyl)-4-(3-fluoro-4-sulfamoylbenzyl)-1H-pyrazol-1-yl)thiazole-4-carboxylic acid] | < 1 nM | +++ (5 μM≥+++>1 μM) | ++ (1 μM≥++>0.25 μM) | + (0.25 μM≥+>0 μM) | + (0.25 μM≥+>0 μM) | 1 to 10 nM | < 100 nM | 
CC(C)(O)C#Cc1cc(-c2nn(-c3nc(C(=O)O)cs3)c(CC3CC3)c2Cc2ccc(S(N)(=O)=O)c(F)c2)ccc1F [Example 2, 2-(5-(Cyclopropylmethyl)-3-(4-fluoro-3-(3-hydroxy-3-methylbut-1-yn-1-yl)phenyl)-4-(3-fluoro-4-sulfamoylbenzyl)-1H-pyrazol-1-yl)thiazole-4-carboxylic acid] | < 1 nM | +++ (5 μM≥+++>1 μM) | +++ (5 μM≥+++>1 μM) | + (0.25 μM≥+>0 μM) | + (0.25 μM≥+>0 μM) | < 1 nM | < 100 nM | 
CC1(C#Cc2cc(-c3nn(-c4nc(C(=O)O)cs4)c(CC4CC4)c3Cc3ccc(S(N)(=O)=O)c(F)c3)ccc2F)COC1 [Example 3, 2-(5-(cyclopropylmethyl)-3-(4-fluoro-3-((3-methyloxetan-3-yl)ethynyl)phenyl)-4-(3-fluoro-4-sulfamoylbenzyl)-1H-pyrazol-1-yl)thiazole-4-carboxylic acid] | < 1 nM |  |  |  |  | 1 to 10 nM | < 100 nM | 
NS(=O)(=O)c1ccc(Cc2c(-c3ccc(F)c(C#CC4(O)CCC4)c3)nn(-c3nc(C(=O)O)cs3)c2CC2CC2)cc1F [Example 4, 2-(5-(cyclopropylmethyl)-3-(4-fluoro-3-((1-hydroxycyclobutyl)ethynyl)phenyl)-4-(3-fluoro-4-sulfamoylbenzyl)-1H-pyrazol-1-yl)thiazole-4-carboxylic acid] | < 1 nM |  |  |  |  | 1 to 10 nM | < 100 nM | 
NS(=O)(=O)c1ccc(Cc2c(-c3ccc(F)c(C#CC4CC4)c3)nn(-c3nc(C(=O)O)co3)c2CC2CC2)cc1F [Example 10, 2-(3-(3-(Cyclopropylethynyl)-4-fluorophenyl)-5-(cyclopropylmethyl)-4-(3-fluoro-4-sulfamoylbenzyl)-1H-pyrazol-1-yl)oxazole-4-carboxylic acid] | < 1 nM |  |  |  |  | 1 to 10 nM | < 100 nM | 
Cc1ncc(CO)c(CO)c1O [Pyridoxine] |  |  |  |  |  |  |  | approximately 30%

Second part, led by results:

IC50 [1] | Measured Compound Concentration Liver-4 h [3] | Measured Compound Concentration Liver-24 h [3] | Measured Compound Concentration Plasma-4 h [3] | Measured Compound Concentration Plasma-24 h [3] | IC50 [4] | Compound | IC50 [2] | lowering urinary oxalate [5]
< 1 nM |  |  |  |  |  | NS(=O)(=O)c1ccc(Cc2c(-c3ccc(F)c(C#CC4(O)CC4)c3)nn(-c3nc(C(=O)O)cs3)c2CC2CC2)cc1F [Example 5, 2-(5-(cyclopropylmethyl)-3-(4-fluoro-3-((1-hydroxycyclopropl)ethynyl)phenyl)-4-(3-fluoro-4-sulfamoylbenzyl)-1H-pyrazol-1-yl)thiazole-4-carboxylic acid] |  | 
< 1 nM | ++++ (++++>5 μM) | +++ (5 μM≥+++>1 μM) | + (0.25 μM≥+>0 μM) | + (0.25 μM≥+>0 μM) | 1 to 10 nM | CC(C)(O)C#Cc1cccc(-c2nn(-c3nc(C(=O)O)cs3)c(CC3CC3)c2Cc2ccc(S(N)(=O)=O)c(F)c2)c1 [Example 6, 2-(5-(cyclopropylmethyl)-4-(3-fluoro-4-sulfamoylbenzyl)-3-(3-(3-hydroxy-3-methylbut-1-yn-1-yl)phenyl)-1H-pyrazol-1-yl)thiazole-4-carboxylic acid] | < 100 nM | 
< 1 nM | ++++ (++++>5 μM) | +++ (5 μM≥+++>1 μM) | + (0.25 μM≥+>0 μM) | + (0.25 μM≥+>0 μM) | 1 to 10 nM | NS(=O)(=O)c1ccc(Cc2c(-c3cccc(C#CC4COC4)c3)nn(-c3nc(C(=O)O)cs3)c2CC2CC2)cc1F [Example 7, 2-(5-(cyclopropylmethyl)-4-(3-fluoro-4-sulfamoylbenzyl)-3-(3-(oxetan-3-ylethynyl)phenyl)-1H-pyrazol-1-yl)thiazole-4-carboxylic acid] | < 100 nM | 
< 1 nM |  |  |  |  | 1 to 10 nM | CC1(C#Cc2cccc(-c3nn(-c4nc(C(=O)O)cs4)c(CC4CC4)c3Cc3ccc(S(N)(=O)=O)c(F)c3)c2)COC1 [Example 8, 2-(5-(cyclopropylmethyl)-4-(3-fluoro-4-sulfamoylbenzyl)-3-(3-((3-methyloxetan-3-yl)ethynyl)phenyl)-1H-pyrazol-1-yl)thiazole-4-carboxylic acid] | < 100 nM | 
< 1 nM | +++ (5 μM≥+++>1 μM) | ++ (1 μM≥++>0.25 μM) | + (0.25 μM≥+>0 μM) | + (0.25 μM≥+>0 μM) | 1 to 10 nM | NS(=O)(=O)c1ccc(Cc2c(-c3cccc(C#CC4(O)COC4)c3)nn(-c3nc(C(=O)O)cs3)c2CC2CC2)cc1F [Example 9, 2-(5-(cyclopropylmethyl)-4-(3-fluoro-4-sulfamoylbenzyl)-3-(3-((3-hydroxyoxetan-3-yl)ethynyl)phenyl)-1H-pyrazol-1-yl)thiazole-4-carboxylic acid] | < 100 nM | 
